Data from patent publication US12133856B2, “Multi-substituent psilocybin derivatives and methods of using” (Enveric Biosciences Canada Inc., priority 2021, dated 2024).
Read-outs that look alike come from different tables or passages of the source.

Experiments:
5-HT1A receptor = target: T1, 5-HT1A receptor (Homo sapiens, UniProt P08908); assay: cAMP-Glo assay of 5-HT1A receptor modulation with 4 μM forskolin in CHO-K1/5-HT1A/Gα15 (+5-HT1A) versus CHO-K1/Gα15 (−5-HT1A) cells; format: cell-based; details: fixed 4 μM forskolin; cAMP relative (%) to ligand-free samples; decrease = 5-HT1A activity, no difference = no modulation
T1 construct: host or cells: CHO-K1 (co-expressing Gα15)
T1 sequence (P08908 1-422): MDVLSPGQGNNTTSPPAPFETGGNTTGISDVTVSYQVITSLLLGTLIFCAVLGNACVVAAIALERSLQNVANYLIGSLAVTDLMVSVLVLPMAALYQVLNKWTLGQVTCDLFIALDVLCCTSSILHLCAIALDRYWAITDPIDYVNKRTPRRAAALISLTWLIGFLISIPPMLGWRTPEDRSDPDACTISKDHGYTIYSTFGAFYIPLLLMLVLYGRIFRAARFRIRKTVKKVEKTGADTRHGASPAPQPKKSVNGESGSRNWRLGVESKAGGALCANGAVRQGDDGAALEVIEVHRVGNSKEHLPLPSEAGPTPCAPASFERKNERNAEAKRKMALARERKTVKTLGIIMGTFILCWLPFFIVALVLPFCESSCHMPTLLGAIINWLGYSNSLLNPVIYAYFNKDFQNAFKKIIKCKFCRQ
Excerpt: CHO-K1/Gα15 (GenScript, M00257) (−5-HT1A) and CHO-K1/5-HT1A/Gα15 (GenScript, M00330) (+5-HT1A) cells lines were used. Briefly, CHO-K1/Gα15 is a control cell line that constitutively expresses Gα15 which is a promiscuous Gq protein. This control cell line lacks any transgene encoding 5-HT1A receptors, but still responds to forskolin; thus, cAMP response to forskolin should be the same regardless of whether or not 5-HT1A agonists are present. Conversely, CHO-K1/5-HT1A/Gα15 cells stably express 5-HT1A receptor in the CHO-K1 host background. […] In +5-HT1A cells, Gα15 may be recruited in place of Gαi/o, which could theoretically dampen cAMP response (Rojas and Fiedler 2016, Front Cell Neurosci 10: 272). […] In contrast, tryptophan is not known to activate, or modulate in any way, 5-HT1A receptors, and was thus used as a negative control. Cells were maintained in complete growth media as recommended by supplier (GenScript) which is constituted as follows: Ham's F12 Nutrient mix (HAM's F12, GIBCO #11765-047) with 10% fetal bovine serum (FBS) (Thermo Scientific #12483020), 200 μg/ml zeocin (Thermo Scientific #R25005) and/or 100 μg/ml hygromycin (Thermo Scientific #10687010). The cells were cultured in a humidified incubator with 37° C. and 5% CO2. Cells maintenance was carried out as recommended by the cell supplier. Briefly, vials with cells were removed from the liquid nitrogen and thawed quickly in 37° C. water bath. Just before the cells were completely thawed the vial's outside was decontaminated by 70% ethanol spray. The cell suspension was then retrieved from the vial and added to warm (37° C.) complete growth media, and centrifuged at 1,000 rpm for 5 minutes. The supernatant was discarded, and the cell pellet was then resuspended in another 10 ml of complete growth media, and added to the 10 cm cell culture dish (Greiner Bio-One #664160). The media was changed every third day until the cells were about 90% confluent. The ˜90% confluent cells were then split 10:1 for maintenance or used for experiment.
As 5-HT1A activation inhibits cAMP formation, the ability of test molecules to modulate 5-HT1A response was measured via changes in the levels of cAMP produced due to application of 4 μM forskolin. […] Briefly, +5-HT1A cells were seeded on 1-6 columns and base −5-HT1A cells were seeded on columns 7-12 of the white walled clear bottom 96-well plate (Corning, #3903). Both cells were seeded at the density of 30,000 cells/well in 100 μl complete growth media and cultured 24 hrs in humidified incubator at 37° C. and 5% CO2. On the experiment day, the media of cells was replaced with serum/antibiotic free culture media. […] Forskolin induced cAMP formation whereas IBMX and RO 20-1724 inhibited the degradation of cAMP. PKA was added to the lysate, mixed, and subsequently the substrate of the PKA was added. PKA was activated by cAMP, and the amount of ATP consumed due to PKA phosphorylation directly corresponded to cAMP levels in the lysate.

5-HT2A [1] = target: T2, 5-HT2A (Homo sapiens, UniProt P28223); assay: Radioligand competition binding assay with [3H]ketanserin (scintillation proximity assay) on membranes containing 5-HT2A; parameters: purchased PerkinElmer ES-313-M400UA; details: for competition binding curve result at 5-HT2A receptor (binding / no binding): controls, FIG. 15C
T2 sequence (P28223 whole entry): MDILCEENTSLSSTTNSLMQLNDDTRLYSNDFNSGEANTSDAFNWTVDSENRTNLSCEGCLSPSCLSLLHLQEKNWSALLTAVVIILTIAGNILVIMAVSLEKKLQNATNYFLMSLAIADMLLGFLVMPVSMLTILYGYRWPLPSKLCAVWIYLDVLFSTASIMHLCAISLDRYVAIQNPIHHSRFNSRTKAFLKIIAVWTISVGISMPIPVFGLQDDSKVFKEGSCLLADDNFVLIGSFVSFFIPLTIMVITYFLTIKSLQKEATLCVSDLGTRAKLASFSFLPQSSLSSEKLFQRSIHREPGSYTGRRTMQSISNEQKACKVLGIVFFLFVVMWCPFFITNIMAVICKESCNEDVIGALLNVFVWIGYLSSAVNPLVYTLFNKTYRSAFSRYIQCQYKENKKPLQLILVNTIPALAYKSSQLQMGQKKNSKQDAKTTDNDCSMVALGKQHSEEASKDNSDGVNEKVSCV
Method: Ki values were calculated from the competition displacement data using the competitive binding analysis from GraphPad PRISM software.

5-HT2A [2] = target: T2, 5-HT2A; details: cited from earlier work

With CC(=O)NCCc1c[nH]c2cc(NC(C)=O)cc(F)c12 [(X)] the “% cAMP in +5HT1A compared to −5HT1A cultures as dosages increase” value (“% cAMP in +5HT1A … as dosages increase” for short) (5-HT1A receptor) was “no significant difference” and the “Ki value at 5-HT2A compared with that of psilocin (in words)” value (5-HT2A [1]; [3H]ketanserin competition, FIG. 16B, indicates comparatively 'loose' binding) was “relatively high”.
In the case of COc1cc(CCN)cc(OC)c1OC [mescaline], the “Ki values for 5-HT2A (in words)” value (5-HT2A [2]; literature values signifying mild or 'loose' binding profiles) is given as “micromolar range”.
In the case of CN(C)CCc1c[nH]c2cccc(O)c12 [psilocin], the “% cAMP in +5HT1A … as dosages increase” value (5-HT1A receptor) is reported as “decreased % cAMP” and the “competition binding curve result at 5-HT2A receptor (binding / no binding)” value (5-HT2A [1]; fixed 1 nM [3H]ketanserin) is reported as “binding”.
For CNC(C)Cc1ccc2c(c1)OCO2 (centres unmarked) [MDMA], the “Ki values for 5-HT2A (in words)” value (5-HT2A [2]) is given as “micromolar range”.
In the case of N[C@@H](Cc1c[nH]c2ccccc12)C(=O)O [tryptophan], the “% cAMP in +5HT1A … as dosages increase” value (5-HT1A receptor) is reported as “no significant difference” and the “competition binding curve result at 5-HT2A receptor (binding / no binding)” value (5-HT2A [1]; fixed 1 nM [3H]ketanserin) is reported as “no binding”.
For CC(=O)NCCc1c[nH]c2cc(F)cc(N)c12 [(IX)], the “% cAMP in +5HT1A … as dosages increase” value (5-HT1A receptor) was “no significant difference” and the “specific binding in competition with [3H]ketanserin for 5-HT2A sites (competition not complete)” value (5-HT2A [1]; fixed 1 nM [3H]ketanserin, test compound 3 nM to 1 mM, FIG. 15D) was ~50%.
In the case of NCCc1c[nH]c2ccc(O)cc12 [serotonin], the “% cAMP in +5HT1A … as dosages increase” value (5-HT1A receptor) is reported as “decreased % cAMP”.
